Read-outs that look alike come from different tables or passages of the source.
Key:
alpha receptors [1] = target: T1, alpha receptors (Rattus norvegicus, UniProt P23944); test: Antagonism of norepinephrine contraction in isolated rat aorta (apparent dissociation constant, dose ratio); type: cell-based; conditions: for Dose-Ratio (norepinephrine ED50 with test compound / control ED50): 10^-5 molar test compound
T1 construct: their external jugular veins and thoracic aortas dissected free of connective tissue; from tissue; host or cells: thoracic aorta of male Wistar rats
T1 sequence (P23944 1-561): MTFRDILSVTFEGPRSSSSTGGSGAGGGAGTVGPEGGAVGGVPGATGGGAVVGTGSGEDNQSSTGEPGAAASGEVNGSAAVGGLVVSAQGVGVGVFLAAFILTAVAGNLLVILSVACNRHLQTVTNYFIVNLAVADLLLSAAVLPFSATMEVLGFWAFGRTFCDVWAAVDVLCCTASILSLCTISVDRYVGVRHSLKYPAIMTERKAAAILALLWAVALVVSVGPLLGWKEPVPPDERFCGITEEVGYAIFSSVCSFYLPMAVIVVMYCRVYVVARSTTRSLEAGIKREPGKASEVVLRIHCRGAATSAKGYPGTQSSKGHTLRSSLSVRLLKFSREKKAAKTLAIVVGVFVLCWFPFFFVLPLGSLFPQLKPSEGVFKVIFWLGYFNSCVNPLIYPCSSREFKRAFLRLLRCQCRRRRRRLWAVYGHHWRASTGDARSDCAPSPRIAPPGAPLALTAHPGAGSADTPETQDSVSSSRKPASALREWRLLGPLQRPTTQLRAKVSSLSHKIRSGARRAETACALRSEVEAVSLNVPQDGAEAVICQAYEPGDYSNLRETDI
Experimental: (§1) The apparent dissociation constants (KB) are a measure of affinity for 5HT2 and alpha receptors and are expressed as the negative logarithm and are determined according to the following protocol.
(§2) Male Wistar rats (150-300 gram weight) were killed and their external jugular veins and thoracic aortas dissected free of connective tissue, cannulated in situ and placed in a modified Krebs' bicarbonate buffer in a suitable tissue bath. Two L-shaped 30-gauge stainless-steel hypodermic needles were inserted in each cannula and the dissected vessels gently pushed onto the needles. One needle was attached with thread to a stationary glass rod and the other to the transducer. [The procedure employed was that described by Hooker, Calkins and Fleisch, Blood Vessels, 14, 1, (1977) for use with circular smooth muscle preparations.]
(§3) The modified Krebs' bicarbonate buffer had the following makeup: (concentrations in millimoles): sodium chloride, 118.2; potassium chloride, 4.6; calcium chloride dihydrate, 1.6; potassium dihydrogenphosphate, 1.2; magnesium sulfate, 1.2; dextrose, 10.0; sodium bicarbonate, 24.8; and water q.s. to 1000 g. The tissue baths were maintained at 37° C. and were aerated with 95% oxygen-5% CO2. An initial optimum resting force of 1 and 4 g. was applied to the jugular vein and aorta, respectively. Isometric contractions were recorded as changes in grams of force on a Beckman Dynograph with Statham UC-3 transducers and microscale accessory attachment. Tissues were allowed to equilibrate 1 to 2 hours before exposure to drugs. Control responses to serotonin in the jugular vein and to norepinephrine in the aorta were obtained. The vessels were then incubated with appropriate concentrations of antagonist for one hour. Responses to serotonin or to norepinephrine were then repeated in the presence of the antagonist. Contraction to serotonin was evaluated in the jugular vein since this tissue produces marked responses to serotonin in the absence of alpha receptors--see Cohen and Wiley, J. Pharm. Exp. Ther., 205, 400 (1978). Alpha receptor antagonist activity was evaluated in the aorta.
(§4) Apparent antagonist dissociation constants were determined for each concentration of antagonist according to the following equation: [formula] wherein [B] is the concentration of the antagonist and the dose ratio is the ED50 of the agonist in the presence of the antagonist divided by the control ED50.
The in vitro rat aorta preparation described above was used.

5HT2 receptors [2] = target: T2, 5HT2 receptors (Rattus norvegicus, UniProt P14842); test: Antagonism of serotonin contraction in isolated rat jugular vein (apparent dissociation constant); type: cell-based; conditions: for Ratio KB alpha / KB 5HT2: rat aorta KB over rat jugular vein KB; for Kb: rat jugular vein, agonist serotonin, antagonist incubated one hour, n in parentheses, read-out: 5HT2 -Log KB ± S.E. (converted)
T2 construct: their external jugular veins and thoracic aortas dissected free of connective tissue; from tissue; host or cells: external jugular vein of male Wistar rats
T2 sequence (P14842 whole entry): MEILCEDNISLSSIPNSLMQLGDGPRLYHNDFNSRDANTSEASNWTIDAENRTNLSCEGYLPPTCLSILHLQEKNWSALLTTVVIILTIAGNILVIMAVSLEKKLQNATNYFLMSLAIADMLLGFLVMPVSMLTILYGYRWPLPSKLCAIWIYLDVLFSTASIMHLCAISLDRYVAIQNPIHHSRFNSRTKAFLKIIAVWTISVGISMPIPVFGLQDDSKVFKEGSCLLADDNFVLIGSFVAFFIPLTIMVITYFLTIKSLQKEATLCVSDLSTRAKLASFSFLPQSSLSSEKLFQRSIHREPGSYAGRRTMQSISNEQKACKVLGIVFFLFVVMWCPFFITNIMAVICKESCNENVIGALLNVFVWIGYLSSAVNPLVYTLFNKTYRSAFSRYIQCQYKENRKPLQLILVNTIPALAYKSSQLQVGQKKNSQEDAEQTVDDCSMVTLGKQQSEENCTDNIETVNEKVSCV
Experimental: as §1, §2, §3, §4

alpha receptors [3] = test: Shift of methoxamine pressor response in pithed SHR; type: in vivo, rat; conditions: i.p., 10 mg./kg.
Experimental: SHR were anesthesized with halothane, femoral arterial and venous catheters implanted as before and the trachea cannulated. Each rat was pithed by passing a steel rod through the right orbit and down the entire length of the spinal column. The steel rod remained in place for the duration of the experiment. Immediately after pithing, the rats were ventilated with room air via a rodent respirator which eliminated any anesthetic effects. An equilibration period of 15 minutes was observed prior to control measurements and administration of drugs or vehicle i.p. Increasing doses of serotonin or methoxamine were injected i.v. 15 minutes after the equilibration period. The response was recorded and the blood pressure allowed to recover to control levels. […] The test drug was prepared fresh daily and administered by the intraperitoneal route. The compound shifted the serotonin response 22 and 480 fold at 0.1 and 3 mg./kg. dosages whereas at a 10 mg./kg. dose there was no shift in the response to methoxamine, an alpha agonist.

5HT2 receptors [4] = target: T2, 5HT2 receptors; type: in vivo; conditions: pithed SHR, i.p.
Experimental: SHR were anesthesized with halothane, femoral arterial and venous catheters implanted as before and the trachea cannulated. Each rat was pithed by passing a steel rod through the right orbit and down the entire length of the spinal column. The steel rod remained in place for the duration of the experiment. Immediately after pithing, the rats were ventilated with room air via a rodent respirator which eliminated any anesthetic effects. […] The response was recorded and the blood pressure allowed to recover to control levels. […] The test drug was prepared fresh daily and administered by the intraperitoneal route.

[5] = Blood pressure in spontaneously hypertensive rats (SHR); type: in vivo, rat; conditions: intraperitoneal, 10 mg./kg.
Experimental: In spontaneously hypertensive rats (SHR), in which blockade of alpha receptors but not 5HT2 receptors lowers blood pressure, there was no effect upon intraperitoneal administration of 1-isopropyl-6-methyl-8β-(1-methyl-2-hydroxy)propoxycarbonyl-5R-ergoline at a 10 mg./kg. dose.

[6] = rat aorta, agonist norepinephrine, antagonist incubated one hour, n in parentheses, read-out: alpha -Log KB ± S.E. (converted)

Row | SMILES | Kb (alpha receptors [1]) | Ratio KB alpha / KB 5HT2 (5HT2 receptors [2]) | Kb (5HT2 receptors [2]) | Dose-Ratio (norepinephrine ED50 with test compound / control ED50) (alpha receptors [1]; rat aorta) | other results
1 | CNCC12CCC(c3ccccc31)c1ccccc12 [Benzoctamine] | 251 nM | 16 | 15.8 nM |  | 
2 | O=C(c1ccc(F)cc1)C1CCN(CCn2c(=O)[nH]c3ccccc3c2=O)CC1 [Ketanserin, reference compound] |  |  |  |  | Kb (alpha receptors [1]; [6]): 12.6 nM
3 | Cc1cc(CCN2CCN(c3cccc(Cl)c3)CC2)n[nH]1 [Mepiprazole] |  | 0.4 | 12.6 nM |  | Kb (alpha receptors [1]; [6]): 5.01 nM
4 | CC(O)COC(=O)[C@@H]1C[C@@H]2c3cccc4c3c(cn4C(C)C)C[C@H]2N(C)C1 (stereo partly drawn) [1-isopropyl-6-methyl-8β-(2-hydroxy)propoxycarbonyl-5R-ergoline] |  |  |  | 1.0 | 
5 | C=CCn1cc2c3c(cccc31)[C@H]1C[C@@H](C(=O)OCCO)CN(C)[C@@H]1C2 [1-allyl-6-methyl-8β-(2-hydroxy)ethoxycarbonyl-5R-ergoline] |  |  |  | 2.4 | 
6 | CC(O)C(C)OC(=O)[C@@H]1C[C@@H]2c3cccc4c3c(cn4C(C)C)C[C@H]2N(C)C1 (stereo partly drawn) [1-isopropyl-6-methyl-8β-(1-methyl-2-hydroxy)propoxycarbonyl-5R-ergoline] | 13800 nM | 300,000 | 0.0537 nM | 3.6 | Shift in the response to methoxamine (alpha receptors [3]): no shift; Shift of the serotonin response (5HT2 receptors [4]; 0.1 mg./kg.): 22 fold; Shift of the serotonin response (5HT2 receptors [4]; 3 mg./kg.): 480 fold; Effect on blood pressure [5]: no effect
7 | O=c1n(CCCN2CCN(c3cccc(Cl)c3)CC2)nc2ccccn12 [Trazodone, reference compound] | 158 nM |  |  |  | 
